Assay results: the supplement of paper PMC10307832

Key:
Assay in all cases: relative viability (nuclei count vs DMSO), 5 days (fraction); higher = more cells survive
[1] = compound: C1=CC=C2C(=C1)N=C(S2)C(C#N)C3=NC(=NC=C3)NCCC4=CN=CC=C4 + CC(=O)c1c(C)c2cnc(Nc3ccc(N4CCNCC4)cn3)nc2n(C2CCCC2)c1=O [Palbociclib] (partner 0.5 µM)
How it was run: (§1)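 Lung cancer cell lines in 1536-well plates got either a single drug or a fixed anchor-drug dose together with five library-drug doses (not always all listed) in √10 steps, by pin tool, on the day after seeding. Nuclei were counted after 5 days, and relative viability is the treated-to-vehicle ratio of nuclei counts. Values are medians of duplicate plates.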

[2] = compound: C1=CC=C2C(=C1)N=C(S2)C(C#N)C3=NC(=NC=C3)NCCC4=CN=CC=C4 + C[C@@H](Oc1cc(-c2cnn(C3CCNCC3)c2)cnc1N)c1c(Cl)ccc(F)c1Cl [Crizotinib] (partner 1 µM)
How it was run: as §1

[3] = compound: C1=CC=C2C(=C1)N=C(S2)C(C#N)C3=NC(=NC=C3)NCCC4=CN=CC=C4 + C[C@]1(O)C[C@@H](c2nc(-c3ccc4ccc(-c5ccccc5)nc4c3)c3c(N)nccn32)C1 [Linsitinib] (partner 1 µM)
How it was run: as §1

[4] = compound: C1=CC=C2C(=C1)N=C(S2)C(C#N)C3=NC(=NC=C3)NCCC4=CN=CC=C4 + Cc1nc(NC(=O)N2CCC[C@H]2C(N)=O)sc1-c1ccnc(C(C)(C)C(F)(F)F)c1 [Alpelisib] (partner 2 µM)
How it was run: as §1

CAL-12T
relative viability ([1]; first compound 0.005 µM): 0.422
relative viability ([1]; first compound 0.01581 µM): 0.327
relative viability ([1]; first compound 0.05 µM): 0.429
relative viability ([1]; first compound 0.1581 µM): 0.673
relative viability ([1]; first compound 0.5 µM): 0.41
relative viability ([2]; first compound 0.005 µM): 0.48
relative viability ([2]; first compound 0.01581 µM): 0.561
relative viability ([2]; first compound 0.05 µM): 0.743
relative viability ([2]; first compound 0.1581 µM): 0.766
relative viability ([2]; first compound 0.5 µM): 0.37
relative viability ([3]; first compound 0.005 µM): 0.76
relative viability ([3]; first compound 0.01581 µM): 0.781
relative viability ([3]; first compound 0.05 µM): 0.671
relative viability ([3]; first compound 0.1581 µM): 0.991
relative viability ([3]; first compound 0.5 µM): 0.839
relative viability ([4]; first compound 0.005 µM): 0.982
relative viability ([4]; first compound 0.01581 µM): 1.23
relative viability ([4]; first compound 0.05 µM): 1.31
relative viability ([4]; first compound 0.1581 µM): 1.49
relative viability ([4]; first compound 0.5 µM): 1.05

COR-L23
relative viability ([1]; first compound 0.005 µM): 0.236
relative viability ([1]; first compound 0.01581 µM): 0.312
relative viability ([1]; first compound 0.05 µM): 0.229
relative viability ([1]; first compound 0.1581 µM): 0.281
relative viability ([1]; first compound 0.5 µM): 0.24
relative viability ([2]; first compound 0.005 µM): 0.6
relative viability ([2]; first compound 0.01581 µM): 0.596
relative viability ([2]; first compound 0.05 µM): 0.728
relative viability ([2]; first compound 0.1581 µM): 0.653
relative viability ([2]; first compound 0.5 µM): 0.568
relative viability ([3]; first compound 0.005 µM): 0.483
relative viability ([3]; first compound 0.01581 µM): 1.14
relative viability ([3]; first compound 0.05 µM): 1.01
relative viability ([3]; first compound 0.1581 µM): 1.06
relative viability ([3]; first compound 0.5 µM): 0.682
relative viability ([4]; first compound 0.005 µM): 0.748
relative viability ([4]; first compound 0.01581 µM): 0.756
relative viability ([4]; first compound 0.05 µM): 0.841
relative viability ([4]; first compound 0.1581 µM): 0.877
relative viability ([4]; first compound 0.5 µM): 0.742

COR-L 105
relative viability ([1]; first compound 0.005 µM): 0.376
relative viability ([1]; first compound 0.01581 µM): 0.408
relative viability ([1]; first compound 0.05 µM): 0.435
relative viability ([1]; first compound 0.1581 µM): 0.39
relative viability ([1]; first compound 0.5 µM): 0.345
relative viability ([2]; first compound 0.005 µM): 0.679
relative viability ([2]; first compound 0.01581 µM): 0.815
relative viability ([2]; first compound 0.05 µM): 0.699
relative viability ([2]; first compound 0.1581 µM): 0.628
relative viability ([2]; first compound 0.5 µM): 0.728
relative viability ([3]; first compound 0.005 µM): 0.956
relative viability ([3]; first compound 0.01581 µM): 1.04
relative viability ([3]; first compound 0.05 µM): 1.11
relative viability ([3]; first compound 0.1581 µM): 1.11
relative viability ([3]; first compound 0.5 µM): 0.992
relative viability ([4]; first compound 0.005 µM): 1.06
relative viability ([4]; first compound 0.01581 µM): 1.22
relative viability ([4]; first compound 0.05 µM): 0.856
relative viability ([4]; first compound 0.1581 µM): 0.955
relative viability ([4]; first compound 0.5 µM): 0.678

EKVX
relative viability ([1]; first compound 0.005 µM): 0.294
relative viability ([1]; first compound 0.01581 µM): 0.367
relative viability ([1]; first compound 0.05 µM): 0.41
relative viability ([1]; first compound 0.1581 µM): 0.531
relative viability ([1]; first compound 0.5 µM): 0.285
relative viability ([2]; first compound 0.005 µM): 0.775
relative viability ([2]; first compound 0.01581 µM): 1.03
relative viability ([2]; first compound 0.05 µM): 0.986
relative viability ([2]; first compound 0.1581 µM): 0.895
relative viability ([2]; first compound 0.5 µM): 0.573
relative viability ([3]; first compound 0.005 µM): 0.83
relative viability ([3]; first compound 0.01581 µM): 1.17
relative viability ([3]; first compound 0.05 µM): 1.06
relative viability ([3]; first compound 0.1581 µM): 1.02
relative viability ([3]; first compound 0.5 µM): 0.829
relative viability ([4]; first compound 0.005 µM): 0.763
relative viability ([4]; first compound 0.01581 µM): 0.981
relative viability ([4]; first compound 0.05 µM): 0.902
relative viability ([4]; first compound 0.1581 µM): 0.844
relative viability ([4]; first compound 0.5 µM): 0.69

EMC-BAC-2
relative viability ([1]; first compound 0.005 µM): 0.461
relative viability ([1]; first compound 0.01581 µM): 0.533
relative viability ([1]; first compound 0.05 µM): 0.487
relative viability ([1]; first compound 0.1581 µM): 0.555
relative viability ([1]; first compound 0.5 µM): 0.486
relative viability ([2]; first compound 0.005 µM): 0.645
relative viability ([2]; first compound 0.01581 µM): 0.769
relative viability ([2]; first compound 0.05 µM): 0.704
relative viability ([2]; first compound 0.1581 µM): 0.766
relative viability ([2]; first compound 0.5 µM): 0.581
relative viability ([3]; first compound 0.005 µM): 0.568
relative viability ([3]; first compound 0.01581 µM): 0.877
relative viability ([3]; first compound 0.05 µM): 0.785
relative viability ([3]; first compound 0.1581 µM): 0.925
relative viability ([3]; first compound 0.5 µM): 0.728
relative viability ([4]; first compound 0.005 µM): 0.566
relative viability ([4]; first compound 0.01581 µM): 0.768
relative viability ([4]; first compound 0.05 µM): 0.686
relative viability ([4]; first compound 0.1581 µM): 0.76
relative viability ([4]; first compound 0.5 µM): 0.67

EPLC-272H
relative viability ([1]; first compound 0.005 µM): 0.358
relative viability ([1]; first compound 0.01581 µM): 0.32
relative viability ([1]; first compound 0.05 µM): 0.317
relative viability ([1]; first compound 0.1581 µM): 0.284
relative viability ([1]; first compound 0.5 µM): 0.304
relative viability ([2]; first compound 0.005 µM): 0.852
relative viability ([2]; first compound 0.01581 µM): 0.97
relative viability ([2]; first compound 0.05 µM): 0.868
relative viability ([2]; first compound 0.1581 µM): 0.94
relative viability ([2]; first compound 0.5 µM): 0.795
relative viability ([3]; first compound 0.005 µM): 1.01
relative viability ([3]; first compound 0.01581 µM): 1.3
relative viability ([3]; first compound 0.05 µM): 1.12
relative viability ([3]; first compound 0.1581 µM): 1.27
relative viability ([3]; first compound 0.5 µM): 1.12
relative viability ([4]; first compound 0.005 µM): 0.854
relative viability ([4]; first compound 0.01581 µM): 0.819
relative viability ([4]; first compound 0.05 µM): 1.02
relative viability ([4]; first compound 0.1581 µM): 1.03
relative viability ([4]; first compound 0.5 µM): 0.768

H3255
relative viability ([1]; first compound 0.005 µM): 0.367
relative viability ([1]; first compound 0.01581 µM): 0.309
relative viability ([1]; first compound 0.05 µM): 0.303
relative viability ([1]; first compound 0.1581 µM): 0.327
relative viability ([1]; first compound 0.5 µM): 0.305
relative viability ([2]; first compound 0.005 µM): 0.722
relative viability ([2]; first compound 0.01581 µM): 0.811
relative viability ([2]; first compound 0.05 µM): 0.911
relative viability ([2]; first compound 0.1581 µM): 0.937
relative viability ([2]; first compound 0.5 µM): 0.824
relative viability ([3]; first compound 0.005 µM): 0.89
relative viability ([3]; first compound 0.01581 µM): 1.01
relative viability ([3]; first compound 0.05 µM): 0.908
relative viability ([3]; first compound 0.1581 µM): 1.05
relative viability ([3]; first compound 0.5 µM): 1.04
relative viability ([4]; first compound 0.005 µM): 0.545
relative viability ([4]; first compound 0.01581 µM): 0.685
relative viability ([4]; first compound 0.05 µM): 0.591
relative viability ([4]; first compound 0.1581 µM): 0.806
relative viability ([4]; first compound 0.5 µM): 0.692

HARA
relative viability ([1]; first compound 0.005 µM): 0.298
relative viability ([1]; first compound 0.01581 µM): 0.235
relative viability ([1]; first compound 0.05 µM): 0.229
relative viability ([1]; first compound 0.1581 µM): 0.257
relative viability ([1]; first compound 0.5 µM): 0.365
relative viability ([2]; first compound 0.005 µM): 0.928
relative viability ([2]; first compound 0.01581 µM): 1.11
relative viability ([2]; first compound 0.05 µM): 0.957
relative viability ([2]; first compound 0.1581 µM): 1.22
relative viability ([2]; first compound 0.5 µM): 0.978
relative viability ([3]; first compound 0.005 µM): 0.731
relative viability ([3]; first compound 0.01581 µM): 0.937
relative viability ([3]; first compound 0.05 µM): 0.934
relative viability ([3]; first compound 0.1581 µM): 1.12
relative viability ([3]; first compound 0.5 µM): 0.788
relative viability ([4]; first compound 0.005 µM): 0.794
relative viability ([4]; first compound 0.01581 µM): 0.794
relative viability ([4]; first compound 0.05 µM): 0.744
relative viability ([4]; first compound 0.1581 µM): 0.893
relative viability ([4]; first compound 0.5 µM): 0.838
